Our source for the IC50 values is patent publication US11299478B2, “2-cyanopyrimidin-4-yl carbamate or urea derivative or salt thereof, and pharmaceutical composition including same” (HANLIM PHARMACEUTICAL CO., LTD., priority 2018, dated 2022).

Type in all cases: biochemical
In one assay the target is cathepsin B (Homo sapiens, UniProt P07858). Briefly: Inhibitory activity assay against cathepsin B (enzyme assay). To be noted: Z-Arg-Arg-AMC 40 μM, enzyme 1 nM, pH 6.0, 90 minutes. How it is done: In order to measure the enzyme activity of cathepsin B, a buffer solution (pH 6.0) consisting of 50 mM MES, 5 mM DTT, 2.5 mM EDTA, 0.005% Polysorbate 20, and 10% DMSO was prepared. The substrate, the test material, and the enzyme were mixed in the buffer solution in a predetermined concentration. The Z-Arg-Arg-AMC substrate was used in the final concentration of 40 μM. The test material was used in the final concentrations of 10.0 μM, 3.33 μM, 1.11 μM, 0.370 μM, 0.123 μM, 0.0412 μM, 0.0137 μM, 0.00457 μM, 0.00152 μM, and 0.000508 μM, respectively. The cathepsin B enzyme was used in the final concentration of 1 nM. The final volume of the enzyme reaction solution was 10 μL. After reacting the mixture of substrate, test material, and enzyme for 90 minutes, the enzyme activity was measured with the EnVision (Perkin Elmer) microplate reader at an absorption wavelength of 340 nm and an emission wavelength of 460 nm. IC50 values were determined using 4-parameter logistic curve fit program of GraphPad Prism.

In the next assay the target is cathepsin L (Homo sapiens, UniProt P07711). Briefly: Inhibitory activity assay against cathepsin L (enzyme assay). To be noted: Z-Phe-Arg-AMC 2 μM, enzyme 3 nM, pH 5.5, 30 minutes. How it is done:
In order to measure the enzyme activity of cathepsin L, a buffer solution (pH 5.5) consisting of 50 mM MES, 2.5 mM DTT, 2.5 mM EDTA, 0.005% Polysorbate 20, and 10% DMSO was prepared. The substrate, the test material, and the enzyme were mixed in the buffer solution in a predetermined concentration. The Z-Phe-Arg-AMC substrate was used in the final concentration of 2 μM. The test material was used in the final concentrations of 10.0 μM, 3.33 μM, 1.11 μM, 0.370 μM, 0.123 μM, 0.0412 μM, 0.0137 μM, 0.00457 μM, 0.00152 μM, and 0.000508 μM, respectively. The cathepsin L enzyme was used in the final concentration of 3 nM. The final volume of the enzyme reaction solution was 10 μL. After reacting the mixture of substrate, test material, and enzyme for 30 minutes, the enzyme activity was measured with the EnVision (Perkin Elmer) microplate reader at an absorption wavelength of 340 nm and an emission wavelength of 460 nm. IC50 values were determined using 4-parameter logistic curve fit program of GraphPad Prism.

For the next assay, the target named is T1, cathepsin K (Homo sapiens, UniProt P43235).
T1 sequence (P43235 115-329): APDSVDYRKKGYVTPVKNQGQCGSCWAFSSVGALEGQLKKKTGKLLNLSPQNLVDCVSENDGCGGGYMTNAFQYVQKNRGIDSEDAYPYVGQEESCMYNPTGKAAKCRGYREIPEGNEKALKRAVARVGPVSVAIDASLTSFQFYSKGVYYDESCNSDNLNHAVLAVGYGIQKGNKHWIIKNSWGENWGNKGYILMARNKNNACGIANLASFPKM
Briefly: Inhibitory activity assay against cathepsin K (enzyme assay). To be noted: Z-Phe-Arg-AMC 10 μM, enzyme 1 nM, pH 5.5, 30 minutes. The method in brief:
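Fluorogenic assay with 1 nM cathepsin K and 10 μM Z-Phe-Arg-AMC in pH 5.5 buffer (50 mM MES, 2 mM DTT, 2.5 mM EDTA, 0.01% Triton X-100, 10% DMSO). Ten compound concentrations, 10.0 to 0.000508 μM; 30 min reaction, ex 355/em 460 nm; IC50 by 4-parameter logistic fit.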

The next assay addresses cathepsin S (Homo sapiens, UniProt P25774). Description: Inhibitory activity assay against cathepsin S (enzyme assay). Conditions: Z-Phe-Arg-AMC 70 μM, enzyme 3 nM, pH 6.5, 45 minutes. How it is done:
In order to measure the enzyme activity of cathepsin S, a buffer solution (pH 6.5) consisting of 50 mM MES, 2.5 mM DTT, 1.0 mM EDTA, 0.001% bovine serum albumin (BSA), and 10% DMSO was prepared. The substrate, the test material, and the enzyme were mixed in the buffer solution in a predetermined concentration. The Z-Phe-Arg-AMC substrate was used in the final concentration of 70 μM. The test material was used in the final concentrations of 10.0 μM, 3.33 μM, 1.11 μM, 0.370 μM, 0.123 μM, 0.0412 μM, 0.0137 μM, 0.00457 μM, 0.00152 μM, and 0.000508 μM, respectively. The cathepsin S enzyme was used in the final concentration of 3 nM. The final volume of the enzyme reaction solution was 10 μL.
After reacting the mixture of substrate, test material, and enzyme for 45 minutes, the enzyme activity was measured with the EnVision (Perkin Elmer) microplate reader at an absorption wavelength of 340 nm and an emission wavelength of 460 nm. IC50 values were determined using 4-parameter logistic curve fit program of GraphPad Prism.

Usually IC50 stands for the midpoint of a concentration-inhibition curve.

A value given as a limit tells only on which side of the number the result lay.

cathepsin L, sequence (P07711 114-333, species assumed): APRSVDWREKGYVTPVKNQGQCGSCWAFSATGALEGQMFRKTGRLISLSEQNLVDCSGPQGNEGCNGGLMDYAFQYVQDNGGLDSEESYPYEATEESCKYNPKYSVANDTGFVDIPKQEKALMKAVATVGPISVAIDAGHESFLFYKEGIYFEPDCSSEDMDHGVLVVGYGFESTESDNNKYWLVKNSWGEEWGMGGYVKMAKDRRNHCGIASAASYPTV
cathepsin S, sequence (P25774 115-331, species assumed): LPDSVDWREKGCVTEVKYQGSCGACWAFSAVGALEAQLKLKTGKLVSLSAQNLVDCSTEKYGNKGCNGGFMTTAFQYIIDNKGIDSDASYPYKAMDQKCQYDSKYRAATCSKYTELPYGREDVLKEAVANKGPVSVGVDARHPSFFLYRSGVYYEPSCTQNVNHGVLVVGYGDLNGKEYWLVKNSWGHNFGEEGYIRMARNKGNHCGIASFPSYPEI

Turning to `Cc1ccc(C)c(NC(=O)NC2(c3ccnc(C#N)n3)CCCC2)c1` [Example 50, 1-(1-(2-cyanopyrimidin-4-yl)cyclopentyl)-3-(2,5-dimethylphenyl)urea], the 50% inhibitory concentration (IC50) was greater than 10000 nM against cathepsin B, 2670 nM against cathepsin L, 4.3 nM at cathepsin K and greater than 10000 nM against cathepsin S.

In the case of `CC(NC(=O)NC1(c2ccnc(C#N)n2)CCCC1)c1ccccc1` (stereo not shown) [Example 51, 1-(1-(2-cyanopyrimidin-4-yl)cyclopentyl)-3-(1-phenylethyl)urea], the half-inhibitory concentration (IC50) at cathepsin B was greater than 10000 nM; on cathepsin L it was 4170 nM; on cathepsin K, 38.8 nM; at cathepsin S it was greater than 10000 nM.

Turning to `N#Cc1nccc(C2(NC(=O)NCc3ccc(F)cc3)CCCC2)n1` [Example 54, 1-(1-(2-cyanopyrimidin-4-yl)cyclopentyl)-3-(4-fluorobenzyl)urea], the IC50 is greater than 10000 nM on cathepsin B, greater than 10000 nM against cathepsin L, 76 nM at cathepsin K and greater than 10000 nM against cathepsin S.

Take `N#Cc1nccc(C2(NC(=O)NCc3cccc4ccccc34)CCCC2)n1` [Example 55, 1-(1-(2-cyanopyrimidin-4-yl)cyclopentyl)-3-(naphthalen-1-ylmethyl)urea]: the concentration for half-maximal inhibition (IC50) on cathepsin B is 5660 nM; on cathepsin L it was greater than 10000 nM; on cathepsin K it was 19.5 nM; at cathepsin S, greater than 10000 nM.

Consider `N#Cc1nccc(C2(NC(=O)NCc3ccccc3C(F)(F)F)CCCC2)n1` [Example 56, 1-(1-(2-cyanopyrimidin-4-yl)cyclopentyl)-3-(2-(trifluoromethyl)benzyl)urea], for which the concentration for half-maximal inhibition (IC50) on cathepsin B was greater than 10000 nM; against cathepsin L it was greater than 10000 nM; on cathepsin K, 101 nM; on cathepsin S, greater than 10000 nM.

With `N#Cc1nccc(C2(NC(=O)Nc3cccc(C(F)(F)F)c3)CCCC2)n1` [Example 60, 1-(1-(2-cyanopyrimidin-4-yl)cyclopentyl)-3-(3-(trifluoromethyl)phenyl)urea], the IC50 is 8780 nM against cathepsin B, greater than 10000 nM against cathepsin L, 21.6 nM at cathepsin K and greater than 10000 nM at cathepsin S.

`Cc1ccc(NC(=O)NC2(c3ccnc(C#N)n3)CCCC2)cc1C` [Example 62, 1-(1-(2-cyanopyrimidin-4-yl)cyclopentyl)-3-(3,4-dimethylphenyl)urea]: the IC50 against cathepsin B is greater than 10000 nM; against cathepsin L it was greater than 10000 nM; at cathepsin K, 83.7 nM; against cathepsin S, greater than 10000 nM.

For `Cc1cc(C)cc(NC(=O)NC2(c3ccnc(C#N)n3)CCCC2)c1` [Example 63, 1-(1-(2-cyanopyrimidin-4-yl)cyclopentyl)-3-(3,5-dimethylphenyl)urea], the IC50 is greater than 10000 nM against cathepsin B, greater than 10000 nM against cathepsin L, 64.3 nM at cathepsin K and greater than 10000 nM on cathepsin S.

With `Cc1cccc(NC(=O)NC2(c3ccnc(C#N)n3)CCCC2)c1C` [Example 64, 1-(1-(2-cyanopyrimidin-4-yl)cyclopentyl)-3-(2,3-dimethylphenyl)urea], the 50% inhibitory concentration (IC50) against cathepsin B is 5890 nM; on cathepsin L it was 5510 nM; on cathepsin K, 75.9 nM; against cathepsin S, greater than 10000 nM.

Take `N#Cc1nccc(C2(NC(=O)Nc3cc(F)ccc3F)CCCC2)n1` [Example 65, 1-(1-(2-cyanopyrimidin-4-yl)cyclopentyl)-3-(2,5-difluorophenyl)urea]: the IC50 was greater than 10000 nM on cathepsin B, greater than 10000 nM on cathepsin L, 46.6 nM on cathepsin K and greater than 10000 nM on cathepsin S.

`Cc1ccc(C(F)(F)F)cc1NC(=O)NC1(c2ccnc(C#N)n2)CCCC1` [Example 66, 1-(1-(2-cyanopyrimidin-4-yl)cyclopentyl)-3-(2-methyl-5-(trifluoromethyl)phenyl)urea]: the IC50 is greater than 10000 nM against cathepsin B, greater than 10000 nM against cathepsin L, 3.4 nM on cathepsin K and greater than 10000 nM at cathepsin S.

For the compound `N#Cc1nccc(C2(NC(=O)Nc3cc(F)ccc3C(F)(F)F)CCCC2)n1` [Example 67, 1-(1-(2-cyanopyrimidin-4-yl)cyclopentyl)-3-(5-fluoro-2-(trifluoromethyl)phenyl)urea], the concentration for half-maximal inhibition (IC50) was greater than 10000 nM at cathepsin B, greater than 10000 nM at cathepsin L, 64.6 nM at cathepsin K and greater than 10000 nM against cathepsin S.

Turning to `N#Cc1nccc(C2(NC(=O)Nc3cccc4ccccc34)CCCC2)n1` [Example 74, 1-(1-(2-cyanopyrimidin-4-yl)cyclopentyl)-3-(naphthalen-1-yl)urea], the IC50 at cathepsin B was greater than 10000 nM; against cathepsin L it was greater than 10000 nM; on cathepsin K it was 27 nM; against cathepsin S, greater than 10000 nM.

Turning to `N#Cc1nccc(C2(NC(=O)Nc3ccc4ccccc4c3)CCCC2)n1` [Example 75, 1-(1-(2-cyanopyrimidin-4-yl)cyclopentyl)-3-(naphthalen-2-yl)urea], the IC50 against cathepsin B was greater than 10000 nM; against cathepsin L, greater than 10000 nM; at cathepsin K, 41 nM; at cathepsin S it was greater than 10000 nM.

For the compound `N#Cc1nccc(C2(NC(=O)Nc3ccc4nccnc4c3)CCCC2)n1` [Example 77, 1-(1-(2-cyanopyrimidin-4-yl)cyclopentyl)-3-(quinoxalin-6-yl)urea], the IC50 is greater than 10000 nM at cathepsin B, greater than 10000 nM at cathepsin L, 95.1 nM at cathepsin K and greater than 10000 nM against cathepsin S.

As for `N#Cc1nccc(C2(NC(=O)Nc3ccc4c(c3)OCO4)CCCC2)n1` [Example 78, 1-(benzo[d][1,3]dioxol-5-yl)-3-(1-(2-cyanopyrimidin-4-yl)cyclopentyl)urea], the IC50 against cathepsin B is greater than 10000 nM; on cathepsin L, greater than 10000 nM; on cathepsin K it was 51.8 nM; at cathepsin S it was greater than 10000 nM.

As to `N#Cc1nccc(C2(NC(=O)Nc3ccc4c(c3)CCC4)CCCC2)n1` [Example 82, 1-(1-(2-cyanopyrimidin-4-yl)cyclopentyl)-3-(2,3-dihydro-1H-inden-5-yl)urea], the 50% inhibitory concentration (IC50) was 7610 nM against cathepsin B, greater than 10000 nM against cathepsin L, 54.5 nM at cathepsin K and greater than 10000 nM against cathepsin S.

As to `N#Cc1nccc(C2(NC(=O)Nc3cc(C(F)(F)F)ccc3F)CCCC2)n1` [Example 83, 1-(1-(2-cyanopyrimidin-4-yl)cyclopentyl)-3-(2-fluoro-5-(trifluoromethyl)phenyl)urea], the IC50 on cathepsin B was greater than 10000 nM; against cathepsin L, greater than 10000 nM; on cathepsin K, 17 nM; against cathepsin S, greater than 10000 nM.

Consider `Cc1ccc(C)c(NC(=O)NC2(c3ccnc(C#N)n3)CCC(C)(C)CC2)c1` [Example 84, 1-(1-(2-cyanopyrimidin-4-yl)-4,4-dimethylcyclohexyl)-3-(2,5-dimethylphenyl)urea], for which the IC50 is greater than 10000 nM at cathepsin B, 3410 nM against cathepsin L, 44.3 nM at cathepsin K and 1680 nM on cathepsin S.
